Tests used:
Assay in all cases: cells
Conditions in all cases: Homo sapiens
J-RT3-T3-5 = format: functional, cell-based;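 note: cell viability assay measuring growth inhibition of human J-RT3-T3-5 cells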
Description: SANGER: Inhibition of human J-RT3-T3-5 cell growth in a cell viability assay.

EW-11 = format: functional, cell-based;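 note: growth inhibition of human EW-11 cells, measured with a cell viability assay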
Description: SANGER: Inhibition of human EW-11 cell growth in a cell viability assay.

L-428 = format: functional, cell-based
Description: SANGER: Inhibition of human L-428 cell growth in a cell viability assay.

no-10 = format: functional, cell-based;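 note: growth inhibition of no-10 cells, read out with a cell viability assay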
Description: SANGER: Inhibition of human no-10 cell growth in a cell viability assay.

MV4-11 = format: functional, cell-based, MV-4-11;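 note: cell viability readout measuring growth inhibition of human MV-4-11 cells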
Description: SANGER: Inhibition of human MV-4-11 cell growth in a cell viability assay.

LB373-MEL-D = format: functional, cell-based;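 note: growth inhibition of the cell line, read out in a cell viability assay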
Description: SANGER: Inhibition of human LB373-MEL-D cell growth in a cell viability assay.

NOMO-1 = format: functional, cell-based;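 note: growth inhibition of human NOMO-1 cells measured by a cell viability assay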
Description: SANGER: Inhibition of human NOMO-1 cell growth in a cell viability assay.

K562 = format: functional, cell-based
Description: SANGER: Inhibition of human K-562 cell growth in a cell viability assay.

HC-1 = format: functional, cell-based;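 note: growth inhibition of HC-1 cells measured by a cell viability assay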
Description: SANGER: Inhibition of human HC-1 cell growth in a cell viability assay.

LAN-6 = format: functional, cell-based;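 note: growth inhibition of LAN-6 cells, determined with a cell viability assay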
Description: SANGER: Inhibition of human LAN-6 cell growth in a cell viability assay.

CTB-1 = format: functional, cell-based
Description: SANGER: Inhibition of human CTB-1 cell growth in a cell viability assay.

HL-60 = format: functional, cell-based;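 note: growth inhibition of human HL-60 cells, read out with a cell viability assay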
Description: SANGER: Inhibition of human HL-60 cell growth in a cell viability assay.

C2BBe1 = format: functional, cell-based;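 note: growth inhibition of C2BBe1 cells, read out through a viability assay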
Description: SANGER: Inhibition of human C2BBe1 cell growth in a cell viability assay.

HCE-T = format: functional, cell-based;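 note: cell viability assay read-out, reporting inhibition of HCE-T cell growth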
Description: SANGER: Inhibition of human HCE-T cell growth in a cell viability assay.

GT3TKB = format: functional, cell-based;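 note: growth inhibition of the cell line, read out with a cell viability assay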
Description: SANGER: Inhibition of human GT3TKB cell growth in a cell viability assay.

MHH-NB-11 = format: functional, cell-based;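 note: growth inhibition of human MHH-NB-11 cells, read out by a cell viability assay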
Description: SANGER: Inhibition of human MHH-NB-11 cell growth in a cell viability assay.

NCI-H2126 = format: functional, cell-based;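 note: growth inhibition of the cancer cell line, determined with a cell viability readout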
Description: SANGER: Inhibition of human NCI-H2126 cell growth in a cell viability assay.

BT-474 = format: functional, cell-based
Description: SANGER: Inhibition of human BT-474 cell growth in a cell viability assay.

ETK-1 = format: functional, cell-based;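 note: growth inhibition of human ETK-1 cells, read out with a cell viability assay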
Description: SANGER: Inhibition of human ETK-1 cell growth in a cell viability assay.

MOLT-4 = format: functional, cell-based;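 note: growth inhibition of MOLT-4 cells, determined with a cell viability readout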
Description: SANGER: Inhibition of human MOLT-4 cell growth in a cell viability assay.

VA-ES-BJ = format: functional, cell-based;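 note: growth inhibition of the VA-ES-BJ cell line, read out by a cell viability assay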
Description: SANGER: Inhibition of human VA-ES-BJ cell growth in a cell viability assay.

EW-16 = format: functional, cell-based;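 note: growth inhibition of human EW-16 cells, read out as cell viability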
Description: SANGER: Inhibition of human EW-16 cell growth in a cell viability assay.

ES7 = format: functional, cell-based;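 note: growth inhibition of cultured human ES7 cells, read out as cell viability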
Description: SANGER: Inhibition of human ES7 cell growth in a cell viability assay.

LU-134-A = format: functional, cell-based
Description: SANGER: Inhibition of human LU-134-A cell growth in a cell viability assay.

OVCAR-4 = format: functional, cell-based;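 note: growth inhibition of human OVCAR-4 cells, measured with a cell viability assay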
Description: SANGER: Inhibition of human OVCAR-4 cell growth in a cell viability assay.

NCI-H747 = format: functional, cell-based;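 note: growth inhibition of human NCI-H747 cells, read out by a cell viability assay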
Description: SANGER: Inhibition of human NCI-H747 cell growth in a cell viability assay.

NCI-H1299 = format: functional, cell-based;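 note: growth inhibition of human NCI-H1299 cells, read out by a cell viability assay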
Description: SANGER: Inhibition of human NCI-H1299 cell growth in a cell viability assay.

KE-37 = format: functional, cell-based;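 note: growth inhibition of KE-37 cells, read out with a cell viability assay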
Description: SANGER: Inhibition of human KE-37 cell growth in a cell viability assay.

SF-268 = format: functional, cell-based;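 note: growth inhibition of SF-268 cells determined with a cell viability assay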
Description: SANGER: Inhibition of human SF268 cell growth in a cell viability assay.

ML-2 = format: functional, cell-based;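 note: growth inhibition of ML-2 cells, measured with a cell viability readout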
Description: SANGER: Inhibition of human ML-2 cell growth in a cell viability assay.

MZ2-MEL = format: functional, cell-based;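 note: growth inhibition of MZ2-MEL cells read out with a cell viability assay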
Description: SANGER: Inhibition of human MZ2-MEL cell growth in a cell viability assay.

HD-MY-Z = format: functional, cell-based;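 note: growth inhibition of HD-MY-Z cells, read out with a cell viability assay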
Description: SANGER: Inhibition of human HD-MY-Z cell growth in a cell viability assay.

SF-126 = format: functional, cell-based;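 note: growth inhibition of human SF126 cells, read out with a cell viability assay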
Description: SANGER: Inhibition of human SF126 cell growth in a cell viability assay.

TE-5 = format: functional, cell-based;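 note: inhibition of cell growth, read out by a cell viability assay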
Description: SANGER: Inhibition of human TE-5 cell growth in a cell viability assay.

MFH-ino = format: functional, cell-based;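 note: growth inhibition of human MFH-ino cells, read out by a cell viability assay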
Description: SANGER: Inhibition of human MFH-ino cell growth in a cell viability assay.

COLO-320-HSR = format: functional, cell-based;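 note: growth inhibition of COLO-320-HSR cells, determined with a cell viability assay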
Description: SANGER: Inhibition of human COLO-320-HSR cell growth in a cell viability assay.

D-263MG = format: functional, cell-based
Description: SANGER: Inhibition of human D-263MG cell growth in a cell viability assay.

BB49-HNC = format: functional, cell-based;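 note: cell viability assay read-out, reported as inhibition of BB49-HNC cell growth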
Description: SANGER: Inhibition of human BB49-HNC cell growth in a cell viability assay.

MLMA = format: functional, cell-based;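 note: growth inhibition of MLMA cells (human), determined through a cell viability readout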
Description: SANGER: Inhibition of human MLMA cell growth in a cell viability assay.

RS4-11 = format: functional, cell-based;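 note: growth inhibition of RS4-11 cells, read out by a cell viability assay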
Description: SANGER: Inhibition of human RS4-11 cell growth in a cell viability assay.

COLO-829 = format: functional, cell-based
Description: SANGER: Inhibition of human COLO-829 cell growth in a cell viability assay.

PSN1 = format: functional, cell-based;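 note: suppression of growth of human PSN1 cells, read out by a cell viability assay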
Description: SANGER: Inhibition of human PSN1 cell growth in a cell viability assay.

LS-1034 = format: functional, cell-based
Description: SANGER: Inhibition of human LS-1034 cell growth in a cell viability assay.

NCI-H720 = format: functional, cell-based;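 note: growth inhibition of human NCI-H720 cells determined by a cell viability assay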
Description: SANGER: Inhibition of human NCI-H720 cell growth in a cell viability assay.

KS-1 = format: functional, cell-based;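 note: growth inhibition of KS-1 cells, read out with a cell viability assay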
Description: SANGER: Inhibition of human KS-1 cell growth in a cell viability assay.

SH-4 = format: functional, cell-based;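 note: growth inhibition of SH-4 cells, read out with a cell viability assay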
Description: SANGER: Inhibition of human SH-4 cell growth in a cell viability assay.

DU-4475 = format: functional, cell-based
Description: SANGER: Inhibition of human DU-4475 cell growth in a cell viability assay.

LS-411N = format: functional, cell-based
IST-MES1 = format: functional, cell-based;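 note: growth inhibition of IST-MES1 cells, measured with a cell viability assay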
Description: SANGER: Inhibition of human IST-MES1 cell growth in a cell viability assay.

L-363 = format: functional, cell-based
Description: SANGER: Inhibition of human L-363 cell growth in a cell viability assay.

MC116 = format: functional, cell-based;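 note: growth inhibition of MC116 cells, read out with a cell viability assay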
Description: SANGER: Inhibition of human MC116 cell growth in a cell viability assay.

NCI-H82 = format: functional, cell-based;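 note: growth inhibition of NCI-H82 cells, measured with a cell viability readout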
Description: SANGER: Inhibition of human NCI-H82 cell growth in a cell viability assay.

LXF-289 cell line = format: functional, cell-based
Description: SANGER: Inhibition of human LXF-289 cell growth in a cell viability assay.

NCI-H1355 = format: functional, cell-based;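 note: growth inhibition of human NCI-H1355 cells, read out by a cell viability assay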
Description: SANGER: Inhibition of human NCI-H1355 cell growth in a cell viability assay.

NKM-1 = format: functional, cell-based;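 note: growth inhibition of NKM-1 cells, read out with a cell viability assay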
Description: SANGER: Inhibition of human NKM-1 cell growth in a cell viability assay.

GR-ST = format: functional, cell-based
Description: SANGER: Inhibition of human GR-ST cell growth in a cell viability assay.

ONS-76 = format: functional, cell-based;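 note: growth inhibition of human ONS-76 cells, read out with a cell viability assay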
Description: SANGER: Inhibition of human ONS-76 cell growth in a cell viability assay.

DOHH-2 = format: functional, cell-based;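 note: growth inhibition of human DOHH-2 cells, read out with a cell viability assay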
Description: SANGER: Inhibition of human DOHH-2 cell growth in a cell viability assay.

NMC-G1 = format: functional, cell-based;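 note: growth inhibition of the NMC-G1 cell line, measured with a cell viability read-out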
Description: SANGER: Inhibition of human NMC-G1 cell growth in a cell viability assay.

NCI-H526 = format: functional, cell-based;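 note: growth inhibition of the human NCI-H526 cell line, measured by a cell viability assay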
Description: SANGER: Inhibition of human NCI-H526 cell growth in a cell viability assay.

EM-2 = format: functional, cell-based;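 note: growth inhibition of EM-2 cells, read out with a cell viability assay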
Description: SANGER: Inhibition of human EM-2 cell growth in a cell viability assay.

LAMA-84 = format: functional, cell-based;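 note: growth inhibition of LAMA-84 cells, read out with a cell viability assay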
Description: SANGER: Inhibition of human LAMA-84 cell growth in a cell viability assay.

SW 962 = format: functional, cell-based
Description: SANGER: Inhibition of human SW962 cell growth in a cell viability assay.

DSH1 = format: functional, cell-based
Description: SANGER: Inhibition of human DSH1 cell growth in a cell viability assay.

HT = format: functional, cell-based
Description: SANGER: Inhibition of human HT cell growth in a cell viability assay.

EC-GI-10 = format: functional, cell-based
Description: SANGER: Inhibition of human EC-GI-10 cell growth in a cell viability assay.

Question: What does the source list for CC[C@]1(O)C[C@@H]2CN(CCc3c([nH]c4ccccc34)[C@@](C(=O)OC)(c3cc4c(cc3OC)N(C)[C@H]3[C@@](O)(C(=O)OC)[C@H](OC(C)=O)[C@]5(CC)C=CCN6CC[C@]43[C@@H]65)C2)C1 [VINBLASTINE]?
Answer: IC50 (J-RT3-T3-5): 0.788 nM; IC50 (EW-11): 7.15 nM; IC50 (L-428): > 100 nM; IC50 (no-10): > 100 nM; IC50 (MV4-11): 2.81 nM; IC50 (LB373-MEL-D): 64.1 nM; IC50 (NOMO-1): 7.86 nM; IC50 (K562): > 100 nM; IC50 (HC-1): 4.21 nM; IC50 (LAN-6): 47.7 nM; IC50 (CTB-1): 1.64 nM; IC50 (HL-60): 4.37 nM; IC50 (C2BBe1): 16.9 nM; IC50 (HCE-T): 20 nM; IC50 (GT3TKB): 1.92 nM; IC50 (MHH-NB-11): 38.9 nM; IC50 (NCI-H2126): 25.9 nM; IC50 (BT-474): 94.2 nM; IC50 (ETK-1): 5.79 nM; IC50 (MOLT-4): 3.85 nM; IC50 (VA-ES-BJ): 3.27 nM; IC50 (EW-16): 7.83 nM; IC50 (ES7): 5.75 nM; IC50 (LU-134-A): 8.58 nM; IC50 (OVCAR-4): 27.9 nM; IC50 (NCI-H747): 81.2 nM; IC50 (NCI-H1299): 16.4 nM; IC50 (KE-37): 3.99 nM; IC50 (SF-268): 16.2 nM; IC50 (ML-2): 8.65 nM; IC50 (MZ2-MEL): 60.3 nM; IC50 (HD-MY-Z): 3.33 nM; IC50 (SF-126): 21.9 nM; IC50 (TE-5): 6.14 nM; IC50 (MFH-ino): > 100 nM; IC50 (COLO-320-HSR): > 100 nM; IC50 (D-263MG): 9.28 nM; IC50 (BB49-HNC): 12.6 nM; IC50 (MLMA): 4.65 nM; IC50 (RS4-11): 4.51 nM; IC50 (COLO-829): 19.2 nM; IC50 (PSN1): 1.25 nM; IC50 (LS-1034): > 100 nM; IC50 (NCI-H720): 6.88 nM; IC50 (KS-1): 7.99 nM; IC50 (SH-4): 43.5 nM; IC50 (DU-4475): > 100 nM; IC50 (LS-411N): 66.4 nM; IC50 (IST-MES1): 67.7 nM; IC50 (L-363): 6 nM; IC50 (MC116): 7.95 nM; IC50 (NCI-H82): > 100 nM; IC50 (LXF-289 cell line): 10.3 nM; IC50 (NCI-H1355): 19.5 nM; IC50 (NKM-1): 1.27 nM; IC50 (GR-ST): 7.63 nM; IC50 (ONS-76): 3.74 nM; IC50 (DOHH-2): 1.81 nM; IC50 (NMC-G1): 8.48 nM; IC50 (NCI-H526): 5.14 nM; IC50 (EM-2): 5.32 nM; IC50 (LAMA-84): 7.01 nM; IC50 (SW 962): 19.4 nM; IC50 (DSH1): 23.2 nM; IC50 (HT): 15.6 nM; IC50 (EC-GI-10): 3.53 nM
